These are literature values, as cited in US7772207B2, “Combination of a CDK inhibitor and CS-682 or a metabolite thereof” (Cyclacel Limited, priority 2003, dated 2010).

For series [1] the following is noted: phase I, patients with a variety of cancers.

On to `CCCCCCCCCCCCCCCC(=O)Nc1ccn([C@@H]2O[C@H](CO)[C@@H](O)[C@@H]2C#N)c(=O)n1` [(I), 1-(2-C-cyano-2-dioxy-β-D-arabino-pentofuranosyl)-N^4-palmitoyl cytosine], for which, in series [1], the dose limiting toxicity entry was “myelosuppression” and the tolerability result was “well tolerated”. Besides, the anticancer activity entry in the series on colon cancer (model of colon cancer) was “strong anticancer activity”. Also, the “increasing survival and preventing the spread of colon cancer metastases to the liver, compared with gemcitabine or 5-FU” value with colon cancer (same model of colon cancer) is “superior to either gemcitabine or 5-FU”.
